The numbers were not newly measured in patent US20250332127A1, “SYSTEM AND METHOD FOR DELIVERING THERAPEUTIC AGENTS TO THE UTERINE CAVITY” (priority 2021, published 2025), which cites them from elsewhere.

Like-named read-outs stand apart in the source and are kept apart here. A value given as a limit tells only on which side of the number the result lay.

Regarding `O=C=O` [CO2], the viscosity (at 20 degrees of Celsius) was 0.0147 centipoise. On to `O=C(O)C(Cl)(Cl)Cl` [trichloroacetic acid], for which the viscosity (trichloroacetic acid as used as therapeutic agent) is on record as ≥ 1 centipoise.
